This is an account of results in patent US12728177B2, “Disinfectant composition with rapid antiviral efficacy” (priority 2015, dated 2026).

For series [1] the following is noted: 25° C.; cited from earlier work.
The subject of series [2] is Bacteriophage Phi X174 (ATCC 13706-81). The series can be described thus: Virucidal infectivity (percent reduction in virus infectivity, E. coli outgrowth with resazurin dye).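 Note: exposed phage diluted into broth, E. coli outgrowth followed 16-24 h at 37 °C by fluorescence rate, unexposed phage set as 100% signal, phage-free as 0%.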 The settings on record: 10-minute exposure.
Experimental: Bacteriophage Phi X174 (ATCC 13706-81) was added 1:10 (−108 plaque forming units (PFU) per sample) into a solution containing the composition of interest. Following a 10-minute exposure, the sample was transferred 1:10 into Tryptic Soy Broth (TSB). Following 10 minutes in TSB, a second 1:10 dilution was completed into an outgrowth solution for the Phi X174 host (E. coli ATCC 13706) that contained TSB and a resazurin dye. E. coli outgrowth was then monitored at 37° C. for 16-24 hours and the rate of fluorescence development was calculated. The rate observed when Phi X174 was not exposed to any composition represented a 100% Phi X174 signal. The rate observed without Phi X174 present represented a “0% signal.” The rate obtained following Phi X174 exposure to a given composition was compared to the signal obtained with no exposure to calculate the “percent reduction in virus infectivity.”
Setting [3] is: secondary agent 2-7 mM + Maleic Acid 3 mM.
Where [4] appears, read: secondary agent 2-7 mM + Phosphonc Acid 50-150 mM.
Where [5] appears, read: secondary agent 2-7 mM + Sulfosuccinic Acid 10-32 mM.

As to `O=C(O)CC(C(=O)O)S(=O)(=O)O` (centres unmarked) [Sulfosuccinic Acid], the “pka1 (first acid dissociation constant)” value in series [1] is −1.65. For the same compound, the “reduction in virus infectivity, Primary Antiviral Agent without secondary agent (None)” value in series [2] (Sulfosuccinic Acid 10-32 mM, no secondary agent) is 0-75%.
Consider `NC(N)=O` [Urea], for which the “% Reduction, Secondary Antiviral Agent Alone” value (from here on “% Reduction”) in series [2] (agent alone 7 mM), in series [2] (agent alone 20 mM), in series [2] (agent alone 60 mM) and in series [2] (agent alone 180 mM) was 0% in each case. Also, the “reduction in virus infectivity, in Combination with Maleic Acid (3 mM)” value (from here on “reduction in virus infectivity … (3 mM)”) is reported as 8% in series [2] (secondary agent 3 mM + Maleic Acid 3 mM), 6% in series [2] (secondary agent 9 mM + Maleic Acid 3 mM), 1% in series [2] (secondary agent 28 mM + Maleic Acid 3 mM) and 0% in series [2] (secondary agent 85 mM + Maleic Acid 3 mM). Besides, the “reduction in virus infectivity, in Combination with Phosphonc Acid (50-150 mM)” value (from here on “reduction in virus infectivity … (50-150 mM)”) is listed as 57% in series [2] (secondary agent 3 mM + Phosphonc Acid 50-150 mM), 71% in series [2] (secondary agent 9 mM + Phosphonc Acid 50-150 mM), 53% in series [2] (secondary agent 28 mM + Phosphonc Acid 50-150 mM) and 56% in series [2] (secondary agent 85 mM + Phosphonc Acid 50-150 mM). Besides, the “reduction in virus infectivity, in Combination with Sulfosuccinic Acid (10-32 mM)” value (from here on “reduction in virus infectivity … (10-32 mM)”) in series [2] (secondary agent 3 mM + Sulfosuccinic Acid 10-32 mM) was 1%; in series [2] (secondary agent 9 mM + Sulfosuccinic Acid 10-32 mM) it was 0%; in series [2] (secondary agent 28 mM + Sulfosuccinic Acid 10-32 mM), 25%; in series [2] (secondary agent 85 mM + Sulfosuccinic Acid 10-32 mM), 0%.
Regarding `[Cl-].[Cl-].[Zn+2]` [Zinc Chloride], the “% Reduction” value in series [2] (agent alone 2 mM) stood at 5%; in series [2] (agent alone 6 mM), 0%; in series [2] (agent alone 18 mM), 0%; in series [2] (agent alone 53 mM) it was 0%. The “reduction in virus infectivity … (3 mM)” value in series [2] (secondary agent 53 mM + Maleic Acid 3 mM) came out at 0%; in series [2] (setting [3]) it was 99%; in series [2] (secondary agent 6-13 mM + Maleic Acid 3 mM), 99%; in series [2] (secondary agent 18-26 mM + Maleic Acid 3 mM), 99%. The entries for the “reduction in virus infectivity … (50-150 mM)” value in series [2] (secondary agent 53 mM + Phosphonc Acid 50-150 mM), in series [2] (setting [4]) and in series [2] (secondary agent 6-13 mM + Phosphonc Acid 50-150 mM) were 88%, 10% and 28%, respectively. For the same compound, the “reduction in virus infectivity … (10-32 mM)” value in series [2] (secondary agent 53 mM + Sulfosuccinic Acid 10-32 mM), in series [2] (setting [5]), in series [2] (secondary agent 6-13 mM + Sulfosuccinic Acid 10-32 mM) and in series [2] (secondary agent 18-26 mM + Sulfosuccinic Acid 10-32 mM) was 99% each time.
For `[Cl][Fe]([Cl])[Cl]` [iron (iii) chloride], the “% Reduction” value in series [2] (agent alone 8 mM) was 3%; in series [2] (agent alone 17 mM), 18%; in series [2] (agent alone 33 mM), 21%; in series [2] (agent alone 66 mM), 32%. In addition, the “reduction in virus infectivity … (3 mM)” value in series [2] (secondary agent 8 mM + Maleic Acid 3 mM) turned out to be 0%; in series [2] (secondary agent 17 mM + Maleic Acid 3 mM), 23%; in series [2] (secondary agent 33 mM + Maleic Acid 3 mM), 0%; in series [2] (secondary agent 66 mM + Maleic Acid 3 mM), 0%. Moreover, the “reduction in virus infectivity … (10-32 mM)” value in series [2] (secondary agent 8 mM + Sulfosuccinic Acid 10-32 mM), in series [2] (secondary agent 17 mM + Sulfosuccinic Acid 10-32 mM), in series [2] (secondary agent 33 mM + Sulfosuccinic Acid 10-32 mM) and in series [2] (secondary agent 66 mM + Sulfosuccinic Acid 10-32 mM) was 99% throughout.
Aluminum chlorohydrate: the “% Reduction” value turned out to be 1% in series [2] (agent alone 2 mM), 3% in series [2] (agent alone 6 mM), 2% in series [2] (agent alone 18 mM) and 9% in series [2] (agent alone 55 mM). Also, the “reduction in virus infectivity … (3 mM)” value in series [2] (secondary agent 55 mM + Maleic Acid 3 mM) was 99%; in series [2] (setting [3]), 17%; in series [2] (secondary agent 6-14 mM + Maleic Acid 3 mM) it was 28%; in series [2] (secondary agent 18-27 mM + Maleic Acid 3 mM), 9%. Further, the “reduction in virus infectivity … (50-150 mM)” value in series [2] (secondary agent 55 mM + Phosphonc Acid 50-150 mM) is on record as 68%; in series [2] (setting [4]), 43%; in series [2] (secondary agent 6-14 mM + Phosphonc Acid 50-150 mM), 34%; in series [2] (secondary agent 18-27 mM + Phosphonc Acid 50-150 mM) it was 29%. Further, the “reduction in virus infectivity … (10-32 mM)” value in series [2] (secondary agent 55 mM + Sulfosuccinic Acid 10-32 mM), in series [2] (setting [5]), in series [2] (secondary agent 6-14 mM + Sulfosuccinic Acid 10-32 mM) and in series [2] (secondary agent 18-27 mM + Sulfosuccinic Acid 10-32 mM) was 99% in each case.
Turning to Laureth-9 [Hetoxol LA-9], the “% Reduction” value in series [2] (agent alone 6 mM) is reported as 0%; in series [2] (agent alone 17 mM), 0%; in series [2] (agent alone 50 mM), 0%; in series [2] (agent alone 150 mM), 2%. Further, the “reduction in virus infectivity … (3 mM)” value is reported as 9% in series [2] (secondary agent 0.2 mM + Maleic Acid 3 mM), 65% in series [2] (secondary agent 1 mM + Maleic Acid 3 mM), 0% in series [2] (secondary agent 5 mM + Maleic Acid 3 mM) and 0% in series [2] (secondary agent 27 mM + Maleic Acid 3 mM). For the same compound, the “reduction in virus infectivity … (50-150 mM)” value in series [2] (secondary agent 0.2 mM + Phosphonc Acid 50-150 mM) came out at 57%; in series [2] (secondary agent 1 mM + Phosphonc Acid 50-150 mM), 62%; in series [2] (secondary agent 5 mM + Phosphonc Acid 50-150 mM) it was 11%; in series [2] (secondary agent 27 mM + Phosphonc Acid 50-150 mM) it was 10%. In addition, the “reduction in virus infectivity … (10-32 mM)” value in series [2] (secondary agent 0.2 mM + Sulfosuccinic Acid 10-32 mM) is recorded as 5%; in series [2] (secondary agent 1 mM + Sulfosuccinic Acid 10-32 mM) it was 0%; in series [2] (secondary agent 5 mM + Sulfosuccinic Acid 10-32 mM), 0%; in series [2] (secondary agent 27 mM + Sulfosuccinic Acid 10-32 mM), 0%.
